Earlier results as cited in patent US20240261217A1, “NUTRACEUTICAL GUMMY COMPOSITIONS AND METHOD OF PREVENTING ALCOHOL OVERCONSUMPTION SYMPTOMS” (LiQure, Inc., priority 2023, published 2024).
Entries after “also recorded” stand apart in the source; their conditions may differ.

Tests used:
[1] = tested on: intoxicated mice; settings: DHM administered to intoxicated mice
[2] = tested on: alcohol dehydrogenase (ADH)
[3] = tested on: acetaldehyde dehydrogenase (ALDH)
[4] = recent studies
[5] = tested on: liver; settings: mouse, in vivo
[6] = in vivo

## O=C1c2c(O)cc(O)cc2O[C@H](c2cc(O)c(O)c(O)c2)[C@H]1O [DHM, Dihydromyricetin]
[1]
  anti-hangover benefits: provide “anti-hangover” benefits
  liver-protection properties: possesses liver-protection properties
[2]
  effect on activity of alcohol dehydrogenase (ADH): enhances the activity of these enzymes
[3]
  effect on activity of acetaldehyde dehydrogenase (ALDH): enhances the activity of these enzymes
During a hangover
  hangover symptoms compared with people who did not take DHM: fewer headaches, less dizziness, less nausea, and less weakness during a hangover
Studies and anecdotal reports, users
  symptoms when taking DHM after drinking alcohol: fewer headaches, less nausea, less vomiting and less anxiety
[4]
  effect on blood alcohol levels: can reduce blood alcohol levels
[5]
  effect on alcohol-induced liver damage: can also prevent (and help repair) alcohol-induced liver damage; also recorded: protect the liver from alcohol-induced damage
[6]
  amount found to mitigate symptoms of over-intoxication from alcohol: 100 to 650 mg
